Experimental data published in publication PMC4870556, “Triazole resistance mediated by mutations of a conserved active site tyrosine in fungal lanosterol 14α-demethylase” (Scientific Reports, 2016).
Read-outs that look alike come from different tables or passages of the source.

Experiments:
[1] = test system: AD3ΔScErg11p (strain overexpressing wild type ScErg11p6 × His); test: Broth microdilution MIC80, strain overexpressing wild type enzyme; assay type: cell-based; settings: Saccharomyces cerevisiae, 48 h, pH 6.8
Procedure: (§1) Susceptibilities to triazole drugs of S. cerevisiae AD3Δ strains overexpressing Erg11p6 × His Y140F/H, but with the native ERG11 deleted, were measured as liquid MIC80 values (Supplementary Table S2). Overexpression of ScErg11p6 × His Y140F in the AD3ΔScErg11p_Y140F strain conferred 2-fold lower susceptibility to FLC than the strain overexpressing wild type ScErg11p6 × His i.e. MIC80 of 4.0 μg/ml and 2.1 μg/ml, respectively. The same mutant conferred a 1.7-fold reduction in susceptibility to VCZ. The MIC80 values were 0.42 μg/ml for the strain overexpressing ScErg11p6 × His Y140F and 0.25 μg/ml for the strain overexpressing wild type ScErg11p6 × His.
The S. cerevisiae AD2Δ host was used to create the strains used in this study. The strain was made by deletion of the HIS1 gene from the previously described ADΔ[49] strain. ADΔ and AD2Δ lack 7 major ATP-binding cassette transporters and the PDR3 gene. Both strains have the gain-of function pdr1–3 mutation in the PDR1 transcriptional regulator gene to provide constitutive overexpression of ScErg11p6 × His from the PDR5 locus. Yeast strains were grown on YPD medium: 1% (wt/vol) Bacto-yeast extract (BD Difco™ Laboratories Inc, Franklin Lakes, NJ), 2% (wt/vol) Bacto-peptone (BD Difco™) and 2% (wt/vol) glucose. Synthetic defined (SD) medium was used for selection of transformants. […]
(§2) The susceptibilities of strains overexpressing wild type ScErg11p6 × His and ScErg11p6 × His Y140F/H to triazole drugs were measured as MIC80 values using broth microdilution assays. […] MIC80s to FLC, ITC and VCZ were determined in 96-well microtiter plates using SD buffered to pH 6.8 instead of RPMI[50]. […] Cell growth was assessed by measuring the OD600nm of wells using a BioTek Synergy™ 2 multi-mode plate reader (BioTek Instruments, Vermont, USA). Each MIC80 was determined using triplicate measurements for three clones of each strain in three separate experiments.

[2] = test system: AfCYP51A; settings: cited from earlier work
[3] = target: T1, ScErg11p6 × His Y140F (Saccharomyces cerevisiae, UniProt P10614, Y140F); test: Type II difference spectra triazole binding to affinity purified Y140F mutant enzyme; settings: for Hill number / IC50 / Kd: Y140F enzyme 1 μM; for IC50 / Kd: Hill equation fit; for IC50: IC50 value is denoted as [Azole]0.5; for Kd: standard error in brackets; for ΔAmax of type II difference spectra: Y140F enzyme, Ni-NTA affinity purified
T1 construct: full-length Saccharomyces cerevisiae hexahistidine-tagged Erg11p (ScErg11p6 × His); made in house; host or cells: Saccharomyces cerevisiae strain AD3ΔScErg11_Y140F (native ERG11 deleted)
T1 sequence (P10614 whole entry Y140F): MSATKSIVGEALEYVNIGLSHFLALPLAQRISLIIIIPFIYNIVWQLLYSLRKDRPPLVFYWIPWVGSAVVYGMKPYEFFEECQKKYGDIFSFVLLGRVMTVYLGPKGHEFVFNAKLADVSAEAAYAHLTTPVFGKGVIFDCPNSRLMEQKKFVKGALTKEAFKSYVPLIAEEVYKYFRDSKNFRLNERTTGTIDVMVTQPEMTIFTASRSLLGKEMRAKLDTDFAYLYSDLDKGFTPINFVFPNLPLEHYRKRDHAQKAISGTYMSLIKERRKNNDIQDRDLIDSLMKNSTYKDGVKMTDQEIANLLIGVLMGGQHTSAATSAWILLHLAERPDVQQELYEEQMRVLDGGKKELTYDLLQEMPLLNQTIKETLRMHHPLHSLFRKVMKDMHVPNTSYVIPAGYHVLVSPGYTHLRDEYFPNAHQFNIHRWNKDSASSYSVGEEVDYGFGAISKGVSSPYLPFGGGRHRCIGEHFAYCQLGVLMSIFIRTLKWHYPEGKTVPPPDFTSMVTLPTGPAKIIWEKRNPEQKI
Procedure: (§3) Ni-NTA affinity purified mutant and wild type ScErg11p6 × His preparations (1 μM) were used to detect and quantitate type II azole binding. The spectral shift of the Soret peak from 417 nm to 421–424 nm in cytochrome P450s is also detected by the type II difference spectra. This change is associated with the replacement of a water molecule coordinated to the heme iron with the azole heterocycle. Type II difference spectra were obtained for FLC, VCZ, ITC and PCZ binding to both mutant enzymes. The binding of FLC is shown as an example (Fig. 2b). The type II difference spectra for the mutant enzymes were less intense than for the wild type enzyme. They gave 2–3-fold smaller differences in absorbance (ΔAmax), with peaks shifted from 428 nm for wild type enzyme to 424–425 nm for the mutant enzymes plus less well-defined troughs between 406–410 nm (Supplementary Table S3). […] These values indicate tight binding for each drug tested.
(§4) The concentration of functional cytochrome P450 for drug binding studies was determined using the carbon monoxide binding spectra according to the protocol described by Guengerich et al.[33]. Affinity purified ScErg11p6 × His used for spectroscopic assays was eluted using affinity purification buffer containing 50 mM L-histidine instead of imidazole. L-histidine was removed from the sample by washing the enzyme with solubilisation buffer containing 16 mM DM using 50 kDa molecular-weight cut-off Amicon Ultra-4 centrifugal filters (Merck Millipore Ltd, Cork, Ireland). The removal of L-histidine was checked by taking the absolute spectra of the sample using the Ultrospec™ 6300 pro UV/Visible spectrophotometer. The heme peak for wild type protein with no ligand was at ~417 nm. With L-histidine bound the peak was detected at ~420 nm. Enzyme concentration was determined by saturating the sample cuvette with CO gas prior to the addition of sodium dithionite. The reference cuvette containing the same amount of enzyme was treated with sodium dithionite only. The P450 concentration was determined by measuring the difference in absorbance between 446 and 490 nm and using the extinction coefficient of 91 mM^−1 cm^−1 [58]. Absorption spectra were recorded with a Cary 1 Bio UV-visible spectrophotometer using 10 mm path UV transparent plastic cuvettes (GE Healthcare Life Sciences, UK). Difference spectra were measured using 1 μM ScErg11p6 × His wild type or Y140F/H enzyme titrated with the triazole drugs ITC, PCZ, VCZ and FLC. Triazole drugs dissolved in DMSO were added to the sample cuvette, with the same amount of DMSO added to the reference cuvette. The total amount of DMSO was <2% of the total volume in the cuvette. Difference spectra between 350–500 nm were recorded and the trough-peak absorbance changes were used to plot binding curves. The dissociation constant Kd for type II binding of triazole drugs was calculated using GraphPad Prism 6 Software (GraphPad Prism, San Diego, CA) by applying the Hill equation using the formula ΔA = ΔAmax [Azole]^n/([Azole]^n + Kd^n), with ΔAmax being the maximum change in absorbance and [Azole] the azole concentration.

[4] = test system: C. albicans Erg11p (CaErg11p) Y132F/H; settings: Y132F/H mutations detected in clinical isolates; cited from earlier work
[5] = test system: AD3ΔScErg11p_Y140F; test: Broth microdilution MIC80, strain overexpressing Y140F enzyme; assay type: cell-based, Saccharomyces cerevisiae; settings: for fold lower susceptibility (MIC80) than strain overexpressing wild type ScErg11p6 × His: Y140F strain vs wild type strain
Procedure: as §1
The S. cerevisiae AD2Δ host was used to create the strains used in this study. The strain was made by deletion of the HIS1 gene from the previously described ADΔ[49] strain. ADΔ and AD2Δ lack 7 major ATP-binding cassette transporters and the PDR3 gene. Both strains have the gain-of function pdr1–3 mutation in the PDR1 transcriptional regulator gene to provide constitutive overexpression of ScErg11p6 × His from the PDR5 locus. Yeast strains were grown on YPD medium: 1% (wt/vol) Bacto-yeast extract (BD Difco™ Laboratories Inc, Franklin Lakes, NJ), 2% (wt/vol) Bacto-peptone (BD Difco™) and 2% (wt/vol) glucose. Synthetic defined (SD) medium was used for selection of transformants. It contained 2% (wt/vol) glucose, 0.67% (wt/vol) yeast nitrogen base without amino acids (BD Difco™), 2% (wt/vol) agar (Oxoid Ltd., Hampshire, UK) and either uracil drop-out (Qbiogene, Irvine, CA) or histidine drop-out (Formedium™, Norfolk, UK) complete supplement mixture. Liquid SD media with complete supplement mixture (Formedium™) containing 10 mM MES and 20 mM HEPES buffered with TRIS to pH 6.8 was used for MIC80 determinations.
The susceptibilities of strains overexpressing wild type ScErg11p6 × His and ScErg11p6 × His Y140F/H to triazole drugs were measured as MIC80 values using broth microdilution assays. The MIC80s were defined as 80% growth inhibition compared to no drug controls because triazole drugs are fungistatic rather than fungicidal and can give trailing growth. MIC80s to FLC, ITC and VCZ were determined in 96-well microtiter plates using SD buffered to pH 6.8 instead of RPMI[50]. Cells were seeded at OD600nm = 0.005 (1.5 × 10^4 CFU) and the plates were incubated in 30 °C with shaking at 200 rpm for 48 hrs. Cell growth was assessed by measuring the OD600nm of wells using a BioTek Synergy™ 2 multi-mode plate reader (BioTek Instruments, Vermont, USA). Each MIC80 was determined using triplicate measurements for three clones of each strain in three separate experiments.

[6] = target: T2, wild type ScErg11p6 × His (Saccharomyces cerevisiae, UniProt P10614); test: Type II difference spectra triazole binding to affinity purified wild type enzyme; settings: for Hill number / IC50 / Kd: wild-type enzyme 1 μM; for IC50 / Kd: Hill equation fit; for IC50: IC50 value is denoted as [Azole]0.5; for Kd: standard error in brackets; for ΔAmax of type II difference spectra: wild-type enzyme, Ni-NTA affinity purified
T2 construct: full-length Saccharomyces cerevisiae hexahistidine-tagged Erg11p (ScErg11p6 × His); made in house; host or cells: Saccharomyces cerevisiae strain AD3ΔScErg11p (overexpression from the PDR5 locus, native ERG11 deleted)
T2 sequence (P10614 whole entry): as the sequence (P10614 whole entry Y140F) above, with F140Y counted along it
Procedure: as §3, §4

[7] = test system: AD3ΔScErg11p_Y140H; test: Broth microdilution MIC80, strain overexpressing Y140H enzyme; assay type: cell-based; settings: Saccharomyces cerevisiae, 48 h, pH 6.8, 80% growth inhibition, SD medium pH 6.8, 30 °C, native ERG11 deleted
Procedure: as §1
The S. cerevisiae AD2Δ host was used to create the strains used in this study. The strain was made by deletion of the HIS1 gene from the previously described ADΔ[49] strain. […]
as §2

[8] = target: AfCYP51B; parameters: method as in PMID 26459890; settings: type II binding, Ni-NTA affinity purified enzyme; cited from earlier work
[9] = target: T3, ScErg11p6 × His Y140H (Saccharomyces cerevisiae, UniProt P10614, Y140H); test: Type II difference spectra triazole binding to affinity purified Y140H mutant enzyme; settings: for Hill number / IC50 / Kd: Y140H enzyme 1 μM; for IC50 / Kd: Hill equation fit; for IC50: IC50 value is denoted as [Azole]0.5; for Kd: standard error in brackets; for ΔAmax of type II difference spectra: Y140H enzyme, Ni-NTA affinity purified
T3 construct: full-length Saccharomyces cerevisiae hexahistidine-tagged Erg11p (ScErg11p6 × His); made in house; host or cells: Saccharomyces cerevisiae strain AD3ΔScErg11_Y140H (native ERG11 deleted)
T3 sequence (P10614 whole entry Y140H): as the sequence (P10614 whole entry Y140F) above, with F140H counted along it
Procedure: as §3, §4

[10] = test system: AfCYP51B; parameters: method as in PMID 26459890; settings: membrane preparations, enzyme heterologously expressed in E. coli; cited from earlier work
[11] = target: AfCYP51A; parameters: method as in PMID 26459890; settings: type II binding, cited from earlier work
[12] = Saccharomyces cerevisiae, 48 h, pH 6.8

SMILES | MIC80 [1] [µg/mL] | Hill number [3] | IC50 [3] [nM] | Kd [3] [nM] | ΔAmax of type II difference spectra [3] | MIC80 [5, 12] [µg/mL] | fold lower susceptibility (MIC80) than strain overexpressing wild type ScErg11p6 × His [5] [fold] | Hill number [6] | IC50 [6] [nM] | Kd [6] [nM] | ΔAmax of type II difference spectra [6] | MIC80 [7] [µg/mL] | Hill number [9] | IC50 [9] [nM] | Kd [9] [nM] | ΔAmax of type II difference spectra [9] | other results
OC(Cn1cncn1)(Cn1cncn1)c1ccc(F)cc1F [FLC, fluconazole] | 2.1 | 1.86 | 330 | 130 | 0.023 | 4 | 2 | 3.0 | 430 | 74 | 0.048 | 3.4 | 1.68 | 270 | 110 | 0.016 | IC50 ([2]; membrane preparations, enzyme heterologously expressed in E. coli): 17 µM; fold higher IC50 for AfCYP51A compared to AfCYP51B ([2]; reconstituted membrane assay): 34 fold; fold increase in resistance [4]: 4 fold; Kd [8]: 4 µM; IC50 [10]: 500 nM; Kd ([11]; Ni-NTA affinity purified enzyme): 12 µM; fold difference in Kd values AfCYP51A vs AfCYP51B ([11]; Ni-NTA affinity purified enzymes): 3 fold
CCC(C)n1ncn(-c2ccc(N3CCN(c4ccc(OCC5COC(Cn6cncn6)(c6ccc(Cl)cc6Cl)O5)cc4)CC3)cc2)c1=O (stereo not drawn) [ITC, itraconazole] | 0.105 | 1.83 | 330 | 130 | 0.014 | – | – | 1.6 | 280 | 123 | 0.037 | – | 1.48 | 250 | 130 | 0.016 | MIC80 ([5]; 80% growth inhibition, SD medium pH 6.8, 30 °C, 48 hrs, native ERG11 deleted): 0.09 µg/mL; MIC80 ([5]; Saccharomyces cerevisiae, 80% growth inhibition, SD medium pH 6.8, 30 °C, 48 hrs, native ERG11 deleted, read-out: MIC80): 0.09 µg/mL
CC[C@@H]([C@H](C)O)n1ncn(-c2ccc(N3CCN(c4ccc(OC[C@@H]5CO[C@@](Cn6cncn6)(c6ccc(F)cc6F)C5)cc4)CC3)cc2)c1=O [PCZ, posaconazole] | – | 1.57 | 290 | 150 | 0.016 | – | – | 2.2 | 320 | 78 | 0.031 | – | 1.57 | 230 | 100 | 0.016 | –
C[C@@H](c1ncncc1F)[C@](O)(Cn1cncn1)c1ccc(F)cc1F [VCZ, voriconazole] | 0.25 | 2.60 | 270 | 30 | 0.019 | 0.42 | 1.7 | 2.7 | 400 | 82 | 0.051 | 0.29 | 1.23 | 290 | 220 | 0.018 | –
